We go through 26 compounds from patent US11976072B2, “Diacylglycerol kinase modulating compounds” (priority 2021, dated 2024).

In assay [1] the test system is Jurkat NFκB-luciferase cells. As to the kind of experiment: Jurkat NFκB-Luciferase Assay. Conditions: Homo sapiens. The assay is classed as cell-based. Put shortly: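 Jurkat NFκB-luciferase reporter cells at 1 million cells/ml in RPMI with 10% FBS were added to antibody-coated, compound-containing wells. Luciferase activity read by One-Glo Ex luminescence 7 minutes after reagent addition.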

For assay [2], the target named is human DGKα (Homo sapiens, UniProt P23743). As to the kind of experiment: DGKα Biochemical Activity Assay (ADP-Glo).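 Further: luminescent detection of ADP produced as DGKα phosphorylates DAG to phosphatidic acid, IC50 from four-parameter nonlinear curve fit.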 As to conditions: recombinant DGKα 1 nM, 100 μM ATP, 18:1 DAG/POPS/octylglucoside micelles, 1 hour at 25° C.; geometric mean; read-out: HTBS DGKa 1X ATP KM IC50. (In general: ADP-Glo first removes unused ATP, then detects ADP through luciferase.)
Excerpt: Alternatively, the enzymatic activity of human DGKα was monitored in a biochemical assay in the presence or absence of compounds and using micelles containing 18:1 Diacylglycerol (DAG), 16:0-18:1 PS (POPS) and Octylglucoside as substrate. DGKα activity led to conversion of DAG and ATP to Phosphatidic Acid (PA) and ADP. Levels of ADP were monitored by bioluminescence using the ADP-Glo Kinase Assay (Promega) and were indicative of DGKα activity.
Recombinant DGKα (Carna Biosciences) in assay buffer (5 μL in 50 mM MOPS [3-(N-morpholino) propanesulfonic acid], pH 7.2; 0.0025% Triton X-100; 1 mM dithiothreitol; 5 mM MgCl2, 200 μM ATP) was added to the compound-containing plate and was incubated for 15 minutes at 25° C. […] The reaction mixture was incubated at 25° C. for 1 hour. ADP-Glo Reagent (10 μL, 10 mM Mg added) provided by the kit was added to each well and incubated at 25° C. for 40 minutes. Then, 20 μL of Kinase Detection Reagent was added and incubated at 25° C. for 40 minutes. Luciferase activity of each well was measured via luminescence on an Envision plate reader (PerkinElmer).
Least squares curve fittings were performed using a four-parameter variable slope nonlinear regression model. […] IC50 values from multiple experiments were averaged by geometric mean and the standard deviation was calculated.
Setting [3] is: Jurkat NFκB-luciferase cells activated with anti-CD3 antibody (OKT3), 2.5 hrs at 37° C., geometric mean, read-out: DGK NFKb Luciferase EC50.
Where [4] appears, read: Jurkat, […], read-out: DGK NFKb Luciferase EC50 (nM).

Read-outs that look alike come from different tables or passages of the source.

human DGKα, sequence (P23743 whole entry): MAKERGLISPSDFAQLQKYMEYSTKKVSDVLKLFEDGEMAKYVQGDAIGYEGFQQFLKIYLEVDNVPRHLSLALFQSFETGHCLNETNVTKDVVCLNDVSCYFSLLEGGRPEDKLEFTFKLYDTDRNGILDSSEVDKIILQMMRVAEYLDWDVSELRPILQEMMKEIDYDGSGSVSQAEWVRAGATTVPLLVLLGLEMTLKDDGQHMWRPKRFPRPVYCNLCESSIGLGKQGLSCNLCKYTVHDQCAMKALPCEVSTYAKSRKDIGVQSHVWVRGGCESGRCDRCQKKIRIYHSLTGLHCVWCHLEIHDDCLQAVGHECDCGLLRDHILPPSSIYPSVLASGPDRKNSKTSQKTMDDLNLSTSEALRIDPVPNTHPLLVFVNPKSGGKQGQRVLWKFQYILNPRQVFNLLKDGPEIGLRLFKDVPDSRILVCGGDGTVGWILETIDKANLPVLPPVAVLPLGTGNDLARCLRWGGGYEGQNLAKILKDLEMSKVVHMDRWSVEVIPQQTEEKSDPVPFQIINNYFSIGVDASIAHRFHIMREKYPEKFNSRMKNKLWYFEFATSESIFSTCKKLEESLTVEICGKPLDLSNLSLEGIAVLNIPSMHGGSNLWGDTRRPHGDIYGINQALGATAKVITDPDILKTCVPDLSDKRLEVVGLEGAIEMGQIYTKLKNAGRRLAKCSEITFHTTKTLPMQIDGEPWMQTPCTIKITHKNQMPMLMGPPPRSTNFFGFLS

As a reminder, the EC50 is the midpoint of the concentration-response curve. Usually IC50 stands for the concentration at which inhibition is half-maximal. In the case of `Cc1nnc2nc(N3CCCc4c(C#CC(C)(C)O)cc(F)cc43)c3c(F)cccc3n12` [Example 152, 4-(7-fluoro-1-(6-fluoro-1-methyl-[1,2,4]triazolo[4,3-a]quinazolin-5-yl)-1,2,3,4-tetrahydroquinolin-5-yl)-2-methylbut-3-yn-2-ol], in assay [1] (setting [3]), the 50% effective concentration (EC50) stood at 53.9 nM. Besides, the IC50 in assay [2] was determined as 34.6 nM.

`Cc1nnc2nc(N3CCOCc4c(N5CC6CC(C5)C6(F)F)cccc43)c3c(F)cccc3n12` [Example 153]: in assay [1] (setting [3]), the EC50 came out at 3.98 nM. Besides, the IC50 in assay [2] was found to be 82.8 nM.

On to `Cc1nnc2nc(N3CCOCc4c(N5CCC(C)(C#N)CC5)cccc43)c3c(F)cccc3n12` [Example 154, 1-[1-(6-fluoro-1-methyl-[1,2,4]triazolo[4,3-a]quinazolin-5-yl)-3,5-dihydro-2H-4,1-benzoxazepin-6-yl]-4-methyl-piperidine-4-carbonitrile], for which the EC50 in assay [1] (setting [3]) was determined as 6.33 nM. Moreover, the concentration for half-maximal inhibition (IC50) in assay [2] stood at 7.42 nM.

Take `Cc1nnc2nc(N3CCCc4c(N5CCC(C)(C#N)CC5)cccc43)c3c(F)cccc3n12` [Example 155, 1-[1-(6-fluoro-1-methyl-[1,2,4]triazolo[4,3-a]quinazolin-5-yl)-3,4-dihydro-2H-quinolin-5-yl]-4-methyl-piperidine-4-carbonitrile]: the EC50 in assay [1] (setting [3]) was 5.13 nM. Besides, the IC50 in assay [2] was 25.6 nM.

`Cc1nnc2nc(N3CCCc4c(N5CCC(C)(F)CC5)cccc43)c3c(F)cccc3n12` [Example 156, 6-fluoro-5-[5-(4-fluoro-4-methyl-1-piperidyl)-3,4-dihydro-2H-quinolin-1-yl]-1-methyl-[1,2,4]triazolo[4,3-a]quinazoline]: the 50% effective concentration (EC50) in assay [1] (setting [3]) is 1.02 nM. The IC50 in assay [2] worked out at 40.2 nM.

`Cc1nnc2nc(N3CCCc4c(N5CCC(F)(F)CC5)cccc43)c3c(F)cccc3n12` [Example 157, 5-[5-(4,4-difluoro-1-piperidyl)-3,4-dihydro-2H-quinolin-1-yl]-6-fluoro-1-methyl-[1,2,4]triazolo[4,3-a]quinazoline]: in assay [1] (setting [3]), the EC50 was determined as 8.23 nM. In assay [2], the IC50 came out at 672 nM.

Consider `Cc1nnc2nc(N3CCCc4c(N5CCN(C(=O)C(F)F)CC5)cccc43)c3c(F)cccc3n12` [Example 158, 2,2-difluoro-1-[4-[1-(6-fluoro-1-methyl-[1,2,4]triazolo[4,3-a]quinazolin-5-yl)-3,4-dihydro-2H-quinolin-5-yl]piperazin-1-yl]ethanone], for which the half-maximal effective concentration (EC50) in assay [1] (setting [3]) came to 49.3 nM. Besides, the IC50 in assay [2] was 281 nM.

For `Cc1nnc2nc(N3CCCc4c(N5CCN(C(=O)C(F)(F)F)CC5)cccc43)c3c(F)cccc3n12` [Example 159], the concentration for a half-maximal effect (EC50) in assay [1] (setting [3]) came out at 16.5 nM. The IC50 in assay [2] stood at 333 nM.

On to `Cc1nnc2nc(N3CCCc4c(N5CCN(S(C)(=O)=O)CC5)cccc43)c3c(F)cccc3n12` [Example 160, 6-fluoro-1-methyl-5-[5-(4-methylsulfonylpiperazin-1-yl)-3,4-dihydro-2H-quinolin-1-yl]-[1,2,4]triazolo[4,3-a]quinazoline], for which the EC50 in assay [1] (setting [3]) amounted to 28.6 nM. Besides, the concentration for half-maximal inhibition (IC50) in assay [2] turned out to be 74.9 nM.

Take `Cc1nnc2nc(N3CCCc4c(N5CCN(C(=O)OC(C)(C)C)CC5)cccc43)c3c(F)cccc3n12` [Example 161, tert-butyl 4-[1-(6-fluoro-1-methyl-[1,2,4]triazolo[4,3-a]quinazolin-5-yl)-3,4-dihydro-2H-quinolin-5-yl]piperazine-1-carboxylate]: in assay [1] (setting [4]), the EC50 worked out at 5.49 nM. Moreover, the 50% inhibitory concentration (IC50) in assay [2] is 87.1 nM.

For the compound `Cc1nnc2nc(N3CCN(C)Cc4c(C#CC(C)(C)C(F)(F)F)cccc43)c3c(F)cccc3n12` [Example 162, 6-fluoro-1-methyl-5-[4-methyl-6-(4,4,4-trifluoro-3,3-dimethyl-but-1-ynyl)-3,5-dihydro-2H-1,4-benzodiazepin-1-yl]-[1,2,4]triazolo[4,3-a]quinazoline], the EC50 in assay [1] (setting [3]) was 3.33 nM. The IC50 in assay [2] stood at 15 nM.

As for `Cc1nnc2nc(N3CCN(C)Cc4c(C#CC5(C(F)(F)F)CC5)cccc43)c3c(F)cccc3n12` [Example 164, 6-fluoro-1-methyl-5-[4-methyl-6-[2-[1-(trifluoromethyl)cyclopropyl]ethynyl]-3,5-dihydro-2H-1,4-benzodiazepin-1-yl]-[1,2,4]triazolo[4,3-a]quinazoline], in assay [1] (setting [3]), the EC50 came to 3.63 nM. In addition, the IC50 in assay [2] is 13 nM.

In the case of `Cc1nnc2nc(N3CCN(C)Cc4c(C#CC5(C)CC5)cccc43)c3c(F)cccc3n12` [Example 165, 6-fluoro-1-methyl-5-[4-methyl-6-[2-(1-methylcyclopropyl)ethynyl]-3,5-dihydro-2H-1,4-benzodiazepin-1-yl]-[1,2,4]triazolo[4,3-a]quinazoline], the EC50 in assay [1] (setting [3]) was 5.35 nM. The IC50 in assay [2] is 7.6 nM.

For `Cc1nnc2nc(N3CCN(C)Cc4c(C#CC5(C(C)(F)F)CC5)cccc43)c3c(F)cccc3n12` [Example 166, 5-[6-[2-[1-(1,1-difluoroethyl)cyclopropyl]ethynyl]-4-methyl-3,5-dihydro-2H-1,4-benzodiazepin-1-yl]-6-fluoro-1-methyl-[1,2,4]triazolo[4,3-a]quinazoline], the EC50 in assay [1] (setting [3]) is 15.8 nM. In assay [2], the IC50 stood at 17.4 nM.

`Cc1nnc2nc(N3CCCOc4c(C#CC5CC5)cncc43)c3c(F)c(F)ccc3n12` [Example 167, 9-(2-cyclopropylethynyl)-5-(6,7-difluoro-1-methyl-[1,2,4]triazolo[4,3-a]quinazolin-5-yl)-3,4-dihydro-2H-pyrido[4,3-b][1,4]oxazepine]: the EC50 in assay [1] (setting [3]) is 5.84 nM. Also, the IC50 in assay [2] was found to be 18 nM.

As for `Cc1nnc2nc(N3CCN(C)Cc4c(C#CC(C)(C)C(F)(F)F)cccc43)c3c(F)c(F)ccc3n12` [Example 168, 6,7-difluoro-1-methyl-5-[4-methyl-6-(4,4,4-trifluoro-3,3-dimethyl-but-1-ynyl)-3,5-dihydro-2H-1,4-benzodiazepin-1-yl]-[1,2,4]triazolo[4,3-a]quinazoline], the EC50 in assay [1] (setting [3]) worked out at 5.41 nM. Further, the IC50 in assay [2] was 10.4 nM.

With `Cc1nnc2nc(N3CCN(C)Cc4c(C#CC5(C(F)(F)F)CC5)cccc43)c3c(F)c(F)ccc3n12` [Example 169, 6,7-difluoro-1-methyl-5-[4-methyl-6-[2-[1-(trifluoromethyl)cyclopropyl]ethynyl]-3,5-dihydro-2H-1,4-benzodiazepin-1-yl]-[1,2,4]triazolo[4,3-a]quinazoline], the EC50 in assay [1] (setting [3]) was determined as 4.39 nM. In addition, the half-maximal inhibitory concentration (IC50) in assay [2] was found to be 7.3 nM.

In the case of `Cc1nnc2nc(N3CCN(C)Cc4c(C#CC(C)(C)O)cccc43)c3cc(F)ccc3n12` [Example 170, 4-[1-(7-fluoro-1-methyl-[1,2,4]triazolo[4,3-a]quinazolin-5-yl)-4-methyl-3,5-dihydro-2H-1,4-benzodiazepin-6-yl]-2-methyl-but-3-yn-2-ol], the EC50 in assay [1] (setting [4]) is 358 nM. In addition, the IC50 in assay [2] was determined as 51 nM.

`Cc1nnc2nc(N3CCN(C)Cc4c(C#CC(C)(C)C(F)(F)F)cccc43)c3cc(F)ccc3n12` [Example 171, 7-fluoro-1-methyl-5-[4-methyl-6-(4,4,4-trifluoro-3,3-dimethyl-but-1-ynyl)-3,5-dihydro-2H-1,4-benzodiazepin-1-yl]-[1,2,4]triazolo[4,3-a]quinazoline]: the half-maximal effective concentration (EC50) in assay [1] (setting [3]) was found to be 7.36 nM. In addition, the IC50 in assay [2] is 14.8 nM.

As to `Cc1nnc2nc(N3CCN(C)Cc4c(C#CC5(C(F)(F)F)CC5)cccc43)c3cc(F)ccc3n12` [Example 172, 7-fluoro-1-methyl-5-[4-methyl-6-[2-[1-(trifluoromethyl)cyclopropyl]ethynyl]-3,5-dihydro-2H-1,4-benzodiazepin-1-yl]-[1,2,4]triazolo[4,3-a]quinazoline], the EC50 in assay [1] (setting [3]) came out at 3.23 nM. The half-maximal inhibitory concentration (IC50) in assay [2] came out at 8.77 nM.

As for `Cc1nnc2nc(N3CCCOc4c(C#CC5(C)CC5)cncc43)c3cc(F)ccc3n12` [Example 173, 5-(7-fluoro-1-methyl-[1,2,4]triazolo[4,3-a]quinazolin-5-yl)-9-[2-(1-methylcyclopropyl)ethynyl]-3,4-dihydro-2H-pyrido[4,3-b][1,4]oxazepine], the EC50 in assay [1] (setting [3]) stood at 2.03 nM. Besides, in assay [2], the 50% inhibitory concentration (IC50) came out at 17.2 nM.

For the compound `CC(C)(O)C#Cc1cccc2c1CCCN2c1nc2nncn2c2ccccc12` [Example 174, 2-methyl-4-[1-([1,2,4]triazolo[4,3-a]quinazolin-5-yl)-3,4-dihydro-2H-quinolin-5-yl]but-3-yn-2-ol], the EC50 in assay [1] (setting [4]) was determined as 12 nM. Also, the IC50 in assay [2] was 26.7 nM.

As for `FC(F)(F)C1(C#Cc2cccc3c2CCCN3c2nc3nncn3c3ccccc23)CC1` [Example 175, 5-[5-[2-[1-(trifluoromethyl)cyclopropyl]ethynyl]-3,4-dihydro-2H-quinolin-1-yl]-[1,2,4]triazolo[4,3-a]quinazoline], the EC50 in assay [1] (setting [3]) stood at 1.74 nM. Moreover, the IC50 in assay [2] was found to be 110 nM.

In the case of `Cc1nnc2nc(N3CCCCc4c(C#CC(C)(C)NC(=O)C5(C(F)(F)F)CC5)cccc43)c3c(F)c(F)ccc3n12` [Example 176], the EC50 in assay [1] (setting [3]) is 6.67 nM. Also, in assay [2], the IC50 was 12.4 nM.

For the compound `Cc1nnc2nc(N3CCCCc4c(C#CC5(NC(=O)C6(C(F)(F)F)CC6)CC5)cccc43)c3c(F)cccc3n12` [Example 177, N-(1-((1-(6-Fluoro-1-methyl-[1,2,4]triazolo[4,3-a]quinazolin-5-yl)-2,3,4,5-tetrahydro-1H-benzo[b]azepin-6-yl)ethynyl)cyclopropyl)-1-(trifluoromethyl)cyclopropane-1-carboxamide], in assay [1] (setting [3]), the concentration for a half-maximal effect (EC50) turned out to be 23.4 nM. For the same compound, the half-inhibitory concentration (IC50) in assay [2] amounted to 6.74 nM.

In the case of `Cc1nnc2nc(N3CCOCc4c(C#CC(C)(C)NS(=O)(=O)C5(C(F)F)CC5)cccc43)c3c(F)cccc3n12` [Example 178, 1-(Difluoromethyl)-N-[3-[1-(6-fluoro-1-methyl-[1,2,4]triazolo[4,3-a]quinazolin-5-yl)-3,5-dihydro-2H-4,1-benzoxazepin-6-yl]-1,1-dimethyl-prop-2-ynyl]cyclopropanesulfonamide], in assay [1] (setting [3]), the concentration giving a half-maximal response (EC50) was determined as 10.2 nM. The IC50 in assay [2] turned out to be 44.9 nM.
